Laboratory results reported in patent US20250283896A1, “PROBES AND METHODS FOR TARGETED VISUALIZATION OF NLRP3 INFLAMMASOMES” (VANDERBILT UNIVERSITY, priority 2022, published 2025).

Key:
[1] = biological target: T1, NLRP3 inflammasome (Mus musculus, UniProt Q8R4B8); assay: Inhibition assay of IL-1β (ELISA) in LPS-primed and nigericin-stimulated BMDMs; assay type: cell-based, murine
T1 construct: InflammaProbe-1 could selectively stain macrophages that have been induced to express NLRP3; host or cells: primary C57BL/6 mouse bone marrow-derived macrophages (BMDM)
T1 sequence (Q8R4B8 whole entry): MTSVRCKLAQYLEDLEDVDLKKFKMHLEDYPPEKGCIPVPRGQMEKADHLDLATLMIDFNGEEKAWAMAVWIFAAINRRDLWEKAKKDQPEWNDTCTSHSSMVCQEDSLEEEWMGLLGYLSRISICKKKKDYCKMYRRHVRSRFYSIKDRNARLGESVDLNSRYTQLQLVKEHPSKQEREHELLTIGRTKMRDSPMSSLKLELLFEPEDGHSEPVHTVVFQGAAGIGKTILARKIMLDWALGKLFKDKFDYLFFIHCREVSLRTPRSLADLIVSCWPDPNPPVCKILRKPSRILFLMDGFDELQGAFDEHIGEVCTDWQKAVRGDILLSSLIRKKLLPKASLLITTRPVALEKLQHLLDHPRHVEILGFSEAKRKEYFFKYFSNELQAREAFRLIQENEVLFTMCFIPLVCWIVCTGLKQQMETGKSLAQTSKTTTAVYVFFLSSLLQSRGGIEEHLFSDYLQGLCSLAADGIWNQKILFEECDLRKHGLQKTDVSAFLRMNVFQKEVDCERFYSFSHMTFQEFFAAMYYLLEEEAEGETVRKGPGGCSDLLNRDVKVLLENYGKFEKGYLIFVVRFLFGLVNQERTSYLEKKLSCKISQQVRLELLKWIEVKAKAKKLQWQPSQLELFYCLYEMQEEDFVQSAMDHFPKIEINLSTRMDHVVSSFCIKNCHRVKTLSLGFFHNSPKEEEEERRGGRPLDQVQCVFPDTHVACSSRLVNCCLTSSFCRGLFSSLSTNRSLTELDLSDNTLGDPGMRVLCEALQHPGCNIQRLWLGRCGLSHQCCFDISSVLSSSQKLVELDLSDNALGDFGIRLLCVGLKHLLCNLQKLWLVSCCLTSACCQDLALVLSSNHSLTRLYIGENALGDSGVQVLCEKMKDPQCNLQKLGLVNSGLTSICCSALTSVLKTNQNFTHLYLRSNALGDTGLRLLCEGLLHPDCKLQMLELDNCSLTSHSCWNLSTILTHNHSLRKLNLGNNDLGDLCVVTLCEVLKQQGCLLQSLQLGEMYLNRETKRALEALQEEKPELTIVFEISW
Description: (§1) Cell culture: Bone marrow-derived macrophages (BMDM), isolated from adult C57BL/6 mouse bone marrow, were purchased from ScienCell Research Laboratories (Carlsbad, CA) and cultured in ScienCell's phenol red-free Macrophage Medium (MaM) supplemented with 5% fetal bovine serum (FBS), Macrophage Growth Supplement (MaGS), and 1% Penicillin-Streptomycin (Pen, 100 U/mL; Strep, 100 μg/mL). Mouse Primary Retinal Microvascular Endothelial Cells (MRMEC), isolated from C57BL/6 mice, were purchased from Cell Biologics Inc. (Chicago, IL) and cultured in Cell Biologics' phenol red-free Endothelial Cell Medium supplemented with 0.1% VEGF, 0.1% Heparin, 0.1% EGF, 0.1% ECGS, 0.1% Hydrocortisone, 2 mM L-Glutamine, and 1% Antibiotic-Antimycotic. The medium was additionally supplemented with 10% FBS (R&D Systems, Minneapolis, MN). BMDMs and MRMECs were incubated at 37° C., 5% CO2, and 95% relative humidity.
(§2) Inhibition assay of IL-1β and TNF-α: BMDMs were seeded in 12-well plates at a density of 5×10^4 cells per well. After an overnight incubation, the cells were primed with 50 ng/mL LPS for 3 h, treated with 1 to 10 µM InflammaProbe-1 or CY-09 for 1 h, and stimulated with 10 μM nigericin for another hour to induce NLRP3 activation, as described in the literature. Cell culture supernatants were assayed for mouse IL-1β and TNF-α by performing enzyme-linked immunosorbent assays (ELISA; Invitrogen, Waltham, MA) in accordance with the manufacturer's instructions. The data were expressed as the mean±SD of 3 replicates per group.

[2] = tested on: TNF-α; assay: Off-target assay of LPS-induced TNF-α secretion (ELISA) in BMDMs; assay type: cell-based, murine; conditions: 10 μM; in comparison to InflammaProbe-1, p<0.05
Description: as §1
as §2, with “Cell culture supernatants were assayed for mouse IL-1β and TNF-α by performing enzyme-linked immunosorbent assays (ELISA; Invitrogen, Waltham, MA) in accordance with the manufacturer's instructions.” left out

[3] = biological target: NLRP3 (Mus musculus, UniProt Q8R4B8); conditions: murine model, literature; cited from earlier work
NLRP3, sequence (Q8R4B8 whole entry): as above

[4] = tested on: primary mouse retinal microvascular endothelial cells (MRMEC); assay: Cell viability assay with Calcein Deep Red AM ester; assay type: cell-based; conditions: 20 h, 70% ethanol in water; p<0.01
Description: Cell culture: Bone marrow-derived macrophages (BMDM), isolated from adult C57BL/6 mouse bone marrow, were purchased from ScienCell Research Laboratories (Carlsbad, CA) and cultured in ScienCell's phenol red-free Macrophage Medium (MaM) supplemented with 5% fetal bovine serum (FBS), Macrophage Growth Supplement (MaGS), and 1% Penicillin-Streptomycin (Pen, 100 U/mL; Strep, 100 μg/mL). Mouse Primary Retinal Microvascular Endothelial Cells (MRMEC), isolated from C57BL/6 mice, were purchased from Cell Biologics Inc. […] The medium was additionally supplemented with 10% FBS (R&D Systems, Minneapolis, MN). BMDMs and […] were incubated at 37° C., 5% CO2, and 95% relative humidity. Cell viability assay: […] (Passage 4) were seeded on sterile black 96-well plates in complete medium at a density of 1.5×10^4 cells per well. […] This fluorescent compound is redshifted relative to […]=510/540 nm), which is necessary to avoid interference from any InflammaProbe-1-dependent fluorescence during fluorometric measurements. […] Finally, fluorometric measurements were performed at ex/em=620/660 nm using the Cytation 5 microplate reader (BioTek Instruments, Inc., Winooski, VT). Fluorescence intensities were plotted as the percentage of cell viability relative to the control group. The data were expressed as the mean±SD of 6 replicates per group.

SMILES	decrease of IL-1β levels in comparison to the LPS and nigericin control ([1]; 1 μM, p<0.05)	decrease of IL-1β levels in comparison to the LPS and nigericin control ([1]; 5 μM, p<0.01)	decrease of IL-1β levels in comparison to the LPS and nigericin control ([1]; 10 μM, p<0.01)	inhibition of NLRP3-mediated secretion of IL-1β ([1]; LPS-primed and nigericin-stimulated murine BMDM, 1 to 10 μM)	effect on levels of TNF-α [2]	NLRP3-mediated cellular secretion of IL-1β [3]	viability of MRMECs (positive control) [4]
O=C(O)c1ccc(/C=C2/SC(=S)N(Cc3cccc(C(F)(F)F)c3)C2=O)cc1 [CY-09]	~1.3 fold	~2 fold	~4 fold	dose-dependently inhibited	significantly decreased	suppressed	–
CCO [70% ethanol, ethanol]	–	–	–	–	–	–	significantly decreased
